{
  "source": "patent US20140004243A1",
  "about": "“SALTY TASTE ENHANCER” (AJINOMOTO CO., INC., priority 2011, published 2014)",
  "data": [
    {"target": "T1, Human ENaC δ, β and γ subunit (Homo sapiens, UniProt P51168+P51170+P51172)", "T1 construct": "expressed in transfected cells; host or cells: Xenopus laevis (African clawed frog) oocytes injected with cRNA", "T1 sequence (P51172 1-802)": "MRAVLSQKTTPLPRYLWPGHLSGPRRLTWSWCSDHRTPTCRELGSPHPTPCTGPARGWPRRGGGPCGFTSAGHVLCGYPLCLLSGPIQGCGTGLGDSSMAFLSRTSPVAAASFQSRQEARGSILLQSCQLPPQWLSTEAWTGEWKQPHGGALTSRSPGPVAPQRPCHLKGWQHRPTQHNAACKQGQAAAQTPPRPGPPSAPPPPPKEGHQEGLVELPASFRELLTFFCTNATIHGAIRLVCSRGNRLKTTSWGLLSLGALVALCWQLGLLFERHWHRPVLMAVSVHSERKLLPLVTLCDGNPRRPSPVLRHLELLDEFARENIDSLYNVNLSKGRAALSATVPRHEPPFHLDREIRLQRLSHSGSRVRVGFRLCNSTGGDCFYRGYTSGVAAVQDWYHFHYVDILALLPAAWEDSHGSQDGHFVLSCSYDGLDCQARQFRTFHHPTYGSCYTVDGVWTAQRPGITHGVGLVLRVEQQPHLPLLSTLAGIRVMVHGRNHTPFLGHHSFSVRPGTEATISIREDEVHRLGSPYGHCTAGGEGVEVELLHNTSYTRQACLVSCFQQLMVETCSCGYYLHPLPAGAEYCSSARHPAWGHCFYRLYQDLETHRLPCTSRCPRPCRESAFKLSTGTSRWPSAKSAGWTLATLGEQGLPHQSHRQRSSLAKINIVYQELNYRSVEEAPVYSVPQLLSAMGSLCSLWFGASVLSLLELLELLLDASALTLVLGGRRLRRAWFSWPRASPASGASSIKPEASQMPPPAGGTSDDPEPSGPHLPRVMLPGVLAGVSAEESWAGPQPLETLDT", "T1 sequence (P51168 1-640)": "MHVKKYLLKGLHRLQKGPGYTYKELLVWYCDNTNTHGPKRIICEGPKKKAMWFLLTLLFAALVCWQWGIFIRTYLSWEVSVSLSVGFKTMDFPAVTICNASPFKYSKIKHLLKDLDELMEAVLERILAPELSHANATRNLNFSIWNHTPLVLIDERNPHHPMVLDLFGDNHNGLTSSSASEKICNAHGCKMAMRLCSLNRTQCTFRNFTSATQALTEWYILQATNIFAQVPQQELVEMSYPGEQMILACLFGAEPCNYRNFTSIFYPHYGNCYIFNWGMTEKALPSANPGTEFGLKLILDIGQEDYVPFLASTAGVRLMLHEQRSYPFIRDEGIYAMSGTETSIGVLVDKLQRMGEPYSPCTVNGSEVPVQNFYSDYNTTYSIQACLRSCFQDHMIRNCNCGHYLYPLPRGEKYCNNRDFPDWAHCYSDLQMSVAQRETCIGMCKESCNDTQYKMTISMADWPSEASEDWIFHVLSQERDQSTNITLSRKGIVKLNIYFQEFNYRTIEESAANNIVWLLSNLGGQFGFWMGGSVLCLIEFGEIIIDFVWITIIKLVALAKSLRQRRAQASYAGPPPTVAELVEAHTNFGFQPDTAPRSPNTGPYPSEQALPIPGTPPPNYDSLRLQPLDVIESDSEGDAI", "T1 sequence (P51170 1-649)": "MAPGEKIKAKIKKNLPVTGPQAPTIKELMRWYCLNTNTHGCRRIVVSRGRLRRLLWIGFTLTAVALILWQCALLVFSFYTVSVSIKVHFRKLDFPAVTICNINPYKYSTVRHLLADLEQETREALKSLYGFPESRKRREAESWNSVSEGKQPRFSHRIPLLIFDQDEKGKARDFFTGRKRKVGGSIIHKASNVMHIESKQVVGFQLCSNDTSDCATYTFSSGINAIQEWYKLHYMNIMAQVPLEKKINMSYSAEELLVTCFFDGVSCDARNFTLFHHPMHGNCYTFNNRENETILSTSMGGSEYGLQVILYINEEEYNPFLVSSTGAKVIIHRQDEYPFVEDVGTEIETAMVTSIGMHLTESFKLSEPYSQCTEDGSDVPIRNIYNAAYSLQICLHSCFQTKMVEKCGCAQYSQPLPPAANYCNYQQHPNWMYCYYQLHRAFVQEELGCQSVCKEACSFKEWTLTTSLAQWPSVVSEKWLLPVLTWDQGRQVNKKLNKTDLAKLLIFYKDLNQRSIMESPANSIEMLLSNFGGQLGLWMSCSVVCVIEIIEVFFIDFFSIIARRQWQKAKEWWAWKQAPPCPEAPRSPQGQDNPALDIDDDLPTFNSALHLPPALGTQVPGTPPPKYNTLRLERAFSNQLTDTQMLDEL", "assay": "Measurement of ENaC activation potency (MED) in ENaC-expressing oocyte, Two Electrode Voltage Clamp", "type": "cell-based", "conditions": "minimum effective dose at which current started to increase; ENaC-expressing African clawed frog oocyte; smaller MED = higher ENaC activation potency", "procedure": "ENaC activation current value, namely, the inward current in ENaC-expressing oocyte was measured as follows.\nAccording to the method described in Motonao Nakamura, Takao Shimizu: Experiment of African clawed frog oocyte, Experimental Medicine Vol. 11, No. 3, 224-232 (1993), oocyte was collected from African clawed frog, […], and the current value was measured by a Two Electrode Voltage Clamp technique. In the present invention, ND96 (96 mM NaCl, 2 mM KCl, 1 mM MgCl2, 5 mM Hepes, 1.8 mM CaCl2, pH 7.6) was used instead of MBS buffer in the above-mentioned document. Injector NANOLITER 2000 manufactured by World Precision Instruments was used for microinjection, OpusXpress 6000A manufactured by Molecular Devices was used for current value measurement by a Two Electrode Voltage Clamp technique, and Clampfit 10.2 software manufactured by Molecular Devices was used for data analysis.\nHuman ENaC δ, β and γ subunit genes shown by SEQ ID NOs: 1, 2 and 3, respectively, in the Sequence Listing were each cloned into a plasmid vector, and used as a template DNA for cRNA synthesis. cRNA was synthesized using MEGAscript kit manufactured by Ambion and according to the method of the manual of the manufacturer.\nA mixture of the same amount of ENaC […] cRNA (0.4 to 0.8 μg/μL), and β and γ subunits cRNA (0.4 μg/μL) was injected into the oocyte of African clawed frog at […] per oocyte, and the oocyte was cultured for 16 hr-72 hr. Thereafter, the oocyte was set on a measuring apparatus OpusXpress 6000A, the electrodes were inserted into the oocyte, the voltage was clamped at a level lower by −30 mV than the resting membrane potential by a Two Electrode Voltage Clamp technique, and the current value was measured.\nTo measure the ENaC activation potency, oocyte was stimulated with each test compound, and the minimum effective dose (hereinafter to be abbreviated as MED) of the compound at the time point when the electric current started to increase was measured. In this case, whichever smaller value of the minimum effective dose of the stimulation compound that increased the current value by not less than 10%, and the minimum effective concentration of the compound that increased, by not less than 25%, the electric current increase value due to the stimulation by 5 μM capsazepine (CAS NO.: 138977-28-3), as compared to the current value before addition of the compound and without stimulation, was taken as MED. A smaller MED means higher ENaC activation potency.\nEach test compound was directly dissolved in ND96, or first dissolved in dimethyl sulfoxide (DMSO) to 100 mM, and then prepared by diluting the solution with ND96 to a concentration used for the evaluation. The concentration of the test compound in ND96 was prepared to various concentrations within the range of 0.1 nM to 300 μm.\nND96 as a perfusion fluid was flown at a rate of 0.5 mL/min through the measuring apparatus OpusXpress 6000A on which ENaC-expressing oocyte was set, the perfusion fluid was temporarily stopped every 3 minutes to add a test compound solution (0.25 mL) dissolved in ND96 at a rate of 0.5 mL/min. In this way, the test compound was contacted with ENaC-expressing oocyte, and whether ENaC is activated by the compound was examined by measuring the current value. After addition of the test compound, feeding of the perfusion fluid was resumed to wash away the compound to be ready for the next addition of the compound.\nThe compound was added successively from a low concentration to a high concentration to stimulate ENaC-expressing oocyte. The concentrations actually added was, for example, 1 nM, 3 nM, 10 nM, 30 nM, 100 nM, 300 nM; 1 μM, 3 μM, 10 μm, 30 μm, 100 μm, 300 μm; 1.2 μM, 6 μM, 30 μm, 150 μm of one test compound. The compound was added from low concentrations to high concentrations at 3 min intervals. […]", "units": {"MED": "µM"}, "values": [
      {"smiles": "CN(CCc1ccccc1O)C(=S)Nc1ccc(O)cc1C(=O)O", "note": "[Example 124]", "MED": 0.3},
      {"smiles": "S=C(NCCC1CCCCC1)NCc1ccccc1", "note": "[Example 70]", "MED": 10},
      {"smiles": "Oc1ccc(NC(=S)NCCc2ccccc2)cc1O", "note": "[Example 47, 1-(3,4-dihydroxyphenyl)-3-(2-phenylethyl)thiourea]", "MED": 5},
      {"smiles": "Nc1cccc(CNC(=S)NCCc2ccccc2)c1", "note": "[Example 79, 1-(3-aminobenzyl)-3-(2-phenylethyl)thiourea]", "MED": 1},
      {"smiles": "S=C(NCCc1ccccc1)NCc1cccnc1", "note": "[Example 31]", "MED": 1},
      {"smiles": "CCC[C@@H](NC(=S)NCCc1ccccc1O)c1ccccc1", "note": "[Example 99]", "MED": 10},
      {"smiles": "C[C@@H](NC(=S)NCC(O)c1cc(Br)ccc1O)c1cccc(O)c1", "note": "(stereo partly drawn) [Example 116]", "MED": 0.1},
      {"smiles": "S=C(NCCc1ccccc1)Nc1ccccc1", "note": "[Example 9]", "MED": 3},
      {"smiles": "COc1cccc(OC)c1/C=N/NC(=S)N[C@H](C)c1ccccc1", "note": "[Example 92, (E)-1-(2,6-dimethoxybenzylidene)-4-((R)-1-phenylethyl)thiosemicarbazide]", "MED": 30},
      {"smiles": "OC(CNC(=S)NCc1ccccc1)c1ccccc1", "note": "(stereo not drawn) [Example 54]", "MED": 1},
      {"smiles": "O=C(O)[C@@H](NC(=S)NCCc1ccccc1O)c1ccccc1", "note": "[Example 102, (S)-2-{3-[2-(2-hydroxyphenyl)ethyl]thioureido}-2-phenylacetic acid]", "MED": 1},
      {"smiles": "OC[C@H](NC(=S)NCCc1ccccc1)c1ccccc1", "note": "[Example 50]", "MED": 3},
      {"smiles": "Oc1cc2c(cc1O)CN(C(=S)NCCc1ccccc1)CC2", "note": "[Example 41, N-(2-phenylethyl)-3,4-dihydro-6,7-dihydroxyisoquinoline-2(1H)-carbothioamide]", "MED": 3},
      {"smiles": "O[C@@H](CNC(=S)NCc1ccccc1)c1ccccc1", "note": "[Example 71]", "MED": 1},
      {"smiles": "CN(CCc1ccccc1)C(=S)Nc1ccc(O)cc1C(=O)O", "note": "[Example 120]", "MED": "0.1 to 0.3"},
      {"smiles": "OC[C@@H](Cc1ccccc1)NC(=S)NCc1ccccc1", "note": "[Example 52]", "MED": 1},
      {"smiles": "C[C@H](NC(=S)NCCc1ccccc1)c1ccccc1", "note": "[Example 12]", "MED": 10},
      {"smiles": "COc1cc2c(cc1OC)CN(C(=S)NCCc1ccc(Cl)cc1)CC2", "note": "[Example 3]", "MED": 30},
      {"smiles": "COC(=O)c1ccc(CNC(=S)NCCc2ccccc2)cc1", "note": "[Example 56]", "MED": 10},
      {"smiles": "S=C(NCCCc1ccccc1)NCc1ccccc1", "note": "[Example 18]", "MED": 10},
      {"smiles": "S=C(NCCc1ccccn1)NCc1ccccc1", "note": "[Example 14]", "MED": 3},
      {"smiles": "COC(=O)c1cc(O)ccc1NC(=S)N(C)CCc1ccccc1", "note": "[Example 119]", "MED": 3},
      {"smiles": "C[C@@H](NC(=S)NCCc1ccccc1C(=O)O)c1cccc(O)c1", "note": "[Example 125, 2-(2-{3-[(R)-1-(3-hydroxyphenyl)ethyl]thioureido}ethyl)benzoic acid]", "MED": "0.06 to 0.1"},
      {"smiles": "O=[N+]([O-])c1ccc(CNC(=S)NCCc2ccccc2)cc1", "note": "[Example 64]", "MED": 30},
      {"smiles": "C[C@@H](NC(=S)NCC(O)c1cc(O)ccc1O)c1cccc(O)c1", "note": "(stereo partly drawn) [Example 112]", "MED": 0.1},
      {"smiles": "Cc1ccc(S(=O)(=O)Nc2cccc(CNC(=S)NCCc3ccccc3)c2)cc1", "note": "[Example 87]", "MED": 10},
      {"smiles": "S=C(NCCc1ccc(Cl)cc1)NCCc1c[nH]c2ccccc12", "note": "[Example 6]", "MED": 30},
      {"smiles": "S=C(NCCc1ccccc1Br)NCc1ccccc1", "note": "[Example 74]", "MED": "3 to 10"},
      {"smiles": "CC(C)(C)OC(=O)NCC(=O)Nc1cccc(CNC(=S)NCCc2ccccc2)c1", "note": "[Example 82, tert-butyl (3-{[3-(2-phenylethyl)thioureido]methyl}phenylcarbamoyl)methylcarbamate]", "MED": 3},
      {"smiles": "C[C@@H](NC(=S)NCCc1ccccc1O)c1ccccc1", "note": "[Example 85]", "MED": 0.6},
      {"smiles": "S=C(NCCc1ccccc1)N[C@H](COCc1ccccc1)c1ccccc1", "note": "[Example 76]", "MED": 10},
      {"smiles": "CC(C)CN(Cc1ccc(O)c(O)c1)C(=S)NCCc1ccccc1", "note": "[Example 48]", "MED": 1},
      {"smiles": "Oc1ccc(CNC(=S)NCCc2ccc(Cl)cc2)cc1O", "note": "[Example 1]", "MED": 1},
      {"smiles": "C[C@@H](NC(=S)NCCc1ccccc1O)c1ccc(O)c(O)c1", "note": "[Example 104]", "MED": "0.06 to 0.1"},
      {"smiles": "C[C@@H](NC(=S)NCC(O)c1cccc(O)c1O)c1cccc(O)c1", "note": "(stereo partly drawn) [Example 111]", "MED": "0.06 to 0.1"},
      {"smiles": "COc1cccc(CCNC(=S)NCc2ccccc2)c1", "note": "[Example 60]", "MED": 10}
    ]}
  ]
}
